# Like-named read-outs stand apart in the source and are kept apart here.
# How the values were obtained:
# CYP3A4 = settings: in vitro; ref studies done by Ariad Pharmaceuticals; cited from earlier work
# xenografts = settings: cited from earlier work
# CYP3A5 = settings: in vitro; ref studies done by Ariad Pharmaceuticals; cited from earlier work
# [1] = tested on: target lesions (solid tumors); assay: Tumor response by Response Evaluation Criteria in Solid Tumors; assay type: in vivo, patients
# [2] = Whole blood pharmacokinetics, LC-MS/MS, noncompartmental analysis; assay type: in vivo, patients; settings: for half-life / AUC / Cmax / Vd / clearance: human, whole blood
# [3] = in vivo
# [4] = two multiple-dose toxicology studies in rats; ref nonclinical studies; cited from earlier work
# [5] = Phase I dose escalation: safety, tolerability, MTD, DLT and adverse events
# [6] = i.v. daily for 5 days every 2 weeks; ref 14 (Mita et al.); cited from earlier work
# human tumor cell lines = settings: cited from earlier work
# [7] = tested on: 4E-BP1 phosphorylated at Ser^65/Thr^70; assay: 4E-BP1 phosphorylation in peripheral blood mononuclear cells; assay type: in vivo, patients; settings: PBMC, 7 days after infusion, all doses
# Laboratory variables = assay type: in vivo; settings: patients who received at least three doses; 95% CI −22.1 to −2.6
# [8] = dose level 6.25 mg, 2 patients entered
# [9] = dose level 12.5 mg, 3 patients entered
# [10] = dose level 25 mg, 4 patients entered
# [11] = dose level 50 mg, 16 patients entered
# [12] = dose level 75 mg, 17 patients entered
# [13] = dose level 100 mg, 4 patients entered
structure (smiles),measurement,setting,value
CO[C@H]1C[C@@H]2CC[C@@H](C)[C@@](O)(O2)C(=O)C(=O)N2CCCC[C@H]2C(=O)O[C@H]([C@H](C)C[C@@H]2CC[C@@H](OP(C)(C)=O)[C@H](OC)C2)CC(=O)[C@H](C)/C=C(\C)[C@@H](O)[C@@H](OC)C(=O)[C@H](C)C[C@H](C)/C=C/C=C/C=C/1C [deforolimus],metabolism by CYP3A4,CYP3A4,primarily metabolized by CYP3A4
same,effect on proliferation of xenografts,xenografts,inhibits proliferation
same,metabolism by CYP3A5,CYP3A5,to a lesser extent
same,patients with disease progression,"[1]; 34 evaluable, after two cycles",12 patients
same,patients with stable disease,"[1]; 34 evaluable, after two cycles",21 patients
same,patients with partial response,[1]; 34 patients evaluable for response,1 patient
same,"correlation r, AUC versus percent change in sum of target lesions","[1]; after two cycles, n = 32, P = 0.015",−0.43
same,"correlation r, dose versus percent change in sum of target lesions","[1]; after two cycles, n = 33, P = 0.28",−0.19
same,shrinkage in target lesions,"[1]; one patient with transitional cell carcinoma of the bladder, after two cycles",34%
same,dose proportionality of AUC,[2]; dose range 6.25 to 100 mg,increased less than proportionally with an increase in dose
same,dose proportionality of Cmax,[2]; dose range 6.25 to 100 mg,increased less than proportionally with an increase in dose
same,half-life,[2]; intravenous,2700 to 3120 min
same,AUC,"[2]; iv, 6.25 mg",3800 ng·h/mL
same,Cmax,"[2]; iv, 6.25 mg",329 ng/mL
same,Vd,"[2]; iv, 6.25 mg",80.3 L
same,clearance,"[2]; iv, 6.25 mg",28.3 mL/min
same,half-life,"[2]; iv, 6.25 mg",3130 min
same,AUC,"[2]; iv, 12.5 mg",5100 ng·h/mL
same,Cmax,"[2]; iv, 12.5 mg",394 ng/mL
same,Vd,"[2]; iv, 12.5 mg",111 L
same,clearance,"[2]; iv, 12.5 mg",45 mL/min
same,AUC,"[2]; iv, 25 mg",9000 ng·h/mL
same,Cmax,"[2]; iv, 25 mg",570 ng/mL
same,Vd,"[2]; iv, 25 mg",136 L
same,clearance,"[2]; iv, 25 mg",48.3 mL/min
same,half-life,"[2]; iv, 25 mg",2770 min
same,AUC,"[2]; iv, 50 mg",10700 ng·h/mL
same,Cmax,"[2]; iv, 50 mg",982 ng/mL
same,Vd,"[2]; iv, 50 mg",235 L
same,clearance,"[2]; iv, 50 mg",81.7 mL/min
same,half-life,"[2]; iv, 50 mg",2690 min
same,AUC,"[2]; iv, 75 mg",12700 ng·h/mL
same,Cmax,"[2]; iv, 75 mg",1200 ng/mL
same,Vd,"[2]; iv, 75 mg",323 L
same,clearance,"[2]; iv, 75 mg",107 mL/min
same,half-life,"[2]; iv, 75 mg",2840 min
same,AUC,"[2]; iv, 100 mg",13400 ng·h/mL
same,Cmax,"[2]; iv, 100 mg",1260 ng/mL
same,Vd,"[2]; iv, 100 mg",373 L
same,clearance,"[2]; iv, 100 mg",128 mL/min
same,half-life,"[2]; iv, 100 mg",2760 min
same,"clearance difference, greater in females, estimated from the model","[2]; regression model with dose and gender, SE 0.41",1.49 L/h
same,"Abdominal pain, number of adverse events, any grade",[3]; human,14
same,"Nausea, number of adverse events, any grade",[3]; human,26
same,"Rash, number of adverse events, any grade",[3]; human,22
same,incidence of anorexia,[3]; human,67%
same,incidence of diarrhea,[3]; human,50%
same,incidence of fatigue,[3]; human,76%
same,incidence of mucositis,[3]; human,63%
same,incidence of nausea,[3]; human,57%
same,patients who experienced an adverse event,[3]; human,46 patients
same,tolerability of the dose level,[3],intolerable
same,no effect dose level / severely toxic dose level,[4],neither a no effect dose level nor a severely toxic dose level was identified
same,"Abdominal pain, number of adverse events, any grade",[5]; 6.25 mg (n = 2),0
same,"Anemia, number of adverse events, any grade",[5]; 6.25 mg (n = 2),0
same,"Anorexia, number of adverse events, any grade",[5]; 6.25 mg (n = 2),2
same,"Constipation, number of adverse events, any grade",[5]; 6.25 mg (n = 2),1
same,"Cough, number of adverse events, any grade",[5]; 6.25 mg (n = 2),0
same,"Diarrhea, number of adverse events, any grade",[5]; 6.25 mg (n = 2),1
same,"Dysgeusia, number of adverse events, any grade",[5]; 6.25 mg (n = 2),1
same,"Fatigue, number of adverse events, any grade",[5]; 6.25 mg (n = 2),2
same,"Hyperglycemia, number of adverse events, any grade",[5]; 6.25 mg (n = 2),0
same,"Hypophosphatemia, number of adverse events, any grade",[5]; 6.25 mg (n = 2),0
same,"Mucosal inflammation, number of adverse events, any grade",[5]; 6.25 mg (n = 2),0
same,"Anemia, number of adverse events, any grade",[5]; 12.5 mg (n = 3),1
same,"Anorexia, number of adverse events, any grade",[5]; 12.5 mg (n = 3),2
same,"Constipation, number of adverse events, any grade",[5]; 12.5 mg (n = 3),2
same,"Cough, number of adverse events, any grade",[5]; 12.5 mg (n = 3),0
same,"Diarrhea, number of adverse events, any grade",[5]; 12.5 mg (n = 3),2
same,"Dysgeusia, number of adverse events, any grade",[5]; 12.5 mg (n = 3),0
same,"Fatigue, number of adverse events, any grade",[5]; 12.5 mg (n = 3),2
same,"Hyperglycemia, number of adverse events, any grade",[5]; 12.5 mg (n = 3),0
same,"Hypophosphatemia, number of adverse events, any grade",[5]; 12.5 mg (n = 3),0
same,"Mucosal inflammation, number of adverse events, any grade",[5]; 12.5 mg (n = 3),1
same,"Abdominal pain, number of adverse events, any grade",[5]; 25 mg (n = 4),0
same,"Anemia, number of adverse events, any grade",[5]; 25 mg (n = 4),1
same,"Anorexia, number of adverse events, any grade",[5]; 25 mg (n = 4),4
same,"Constipation, number of adverse events, any grade",[5]; 25 mg (n = 4),2
same,"Cough, number of adverse events, any grade",[5]; 25 mg (n = 4),0
same,"Diarrhea, number of adverse events, any grade",[5]; 25 mg (n = 4),2
same,"Dysgeusia, number of adverse events, any grade",[5]; 25 mg (n = 4),0
same,"Fatigue, number of adverse events, any grade",[5]; 25 mg (n = 4),3
same,"Hyperglycemia, number of adverse events, any grade",[5]; 25 mg (n = 4),0
same,"Hypophosphatemia, number of adverse events, any grade",[5]; 25 mg (n = 4),0
same,"Mucosal inflammation, number of adverse events, any grade",[5]; 25 mg (n = 4),1
same,"Anemia, number of adverse events grade 3 or 4",[5]; 50 mg (n = 16),1
same,"Anemia, number of adverse events, any grade",[5]; 50 mg (n = 16),5
same,"Dysgeusia, number of adverse events, any grade",[5]; 50 mg (n = 16),3
same,"Hyperglycemia, number of adverse events grade 3 or 4",[5]; 50 mg (n = 16),2
same,"Hyperglycemia, number of adverse events, any grade",[5]; 50 mg (n = 16),5
same,"Hypophosphatemia, number of adverse events grade 3 or 4",[5]; 50 mg (n = 16),3
same,"Hypophosphatemia, number of adverse events, any grade",[5]; 50 mg (n = 16),4
same,patients discontinued from the study due to adverse events,[5]; 50 mg dose level,3 patients
same,"Abdominal pain, number of adverse events grade 3 or 4",[5]; 75 mg (n = 17),1
same,"Abdominal pain, number of adverse events, any grade",[5]; 75 mg (n = 17),5
same,"Cough, number of adverse events, any grade",[5]; 75 mg (n = 17),3
same,"Hyperglycemia, number of adverse events grade 3 or 4",[5]; 75 mg (n = 17),4
same,"Hyperglycemia, number of adverse events, any grade",[5]; 75 mg (n = 17),5
same,"Mucosal inflammation, number of adverse events, any grade",[5]; 75 mg (n = 17),12
same,patients discontinued from the study due to adverse events,[5]; 75 mg dose level,3 patients
same,patients who developed grade 1 to 2 mucositis,[5]; 75 mg dose level (17 patients),Twelve
same,"Abdominal pain, number of adverse events grade 3 or 4",[5]; 100 mg (n = 4),1 (1)
same,"Abdominal pain, number of adverse events, any grade",[5]; 100 mg (n = 4),1 (1)
same,"Anemia, number of adverse events, any grade",[5]; 100 mg (n = 4),1
same,"Anorexia, number of adverse events, any grade",[5]; 100 mg (n = 4),3
same,"Constipation, number of adverse events, any grade",[5]; 100 mg (n = 4),3
same,"Cough, number of adverse events, any grade",[5]; 100 mg (n = 4),1
same,"Diarrhea, number of adverse events, any grade",[5]; 100 mg (n = 4),2
same,"Dysgeusia, number of adverse events, any grade",[5]; 100 mg (n = 4),1
same,"Fatigue, number of adverse events, any grade",[5]; 100 mg (n = 4),3
same,"Hyperglycemia, number of adverse events, any grade",[5]; 100 mg (n = 4),0
same,"Hypophosphatemia, number of adverse events grade 3 or 4",[5]; 100 mg (n = 4),1 (1)
same,"Hypophosphatemia, number of adverse events, any grade",[5]; 100 mg (n = 4),1 (1)
same,"Mucosal inflammation, number of adverse events grade 3 or 4",[5]; 100 mg (n = 4),1
same,"Mucosal inflammation, number of adverse events, any grade",[5]; 100 mg (n = 4),4
same,patients who required dosing delays and/or dose reduction secondary to mucositis,[5]; 100 mg dose level,3 of 4
same,patients who experienced mucositis,[5]; 100 mg dose level (4 patients),4 patients
same,patients with mucositis grade ≥3,[5]; 100 mg dose level (4 patients),1 patients
same,patients who experienced an adverse event grade ≥3,[5]; all 46 patients,70%
same,patients who required interruption of treatment or dose reduction on at least one occasion,[5]; all 46 patients,Twenty-eight
same,deaths thought to be related to deforolimus,[5]; all patients,no deaths thought to be related to deforolimus
same,patients with serious adverse events,[5]; all patients,22 patients
same,serious adverse events,[5]; all patients,Thirty-two
same,incidence of hypercholesterolemia,"[5]; all patients, weekly schedule",7%
same,incidence of hyperglycemia,"[5]; all patients, weekly schedule",22%
same,incidence of hypertriglyceridemia,"[5]; all patients, weekly schedule",9%
same,No. patients requiring dose interruptions or reductions,[5]; [8],0
same,No. patients requiring dose reductions,[5]; [8],0
same,"No. patients requiring dose interruptions or reductions, at least possibly related to deforolimus",[5]; dose level 12.5 mg,0
same,No. patients requiring dose interruptions or reductions,[5]; [9],2
same,No. patients requiring dose reductions,[5]; [9],0
same,"No. patients requiring dose interruptions or reductions, at least possibly related to deforolimus",[5]; dose level 25 mg,0
same,No. patients requiring dose interruptions or reductions,[5]; [10],3
same,No. patients requiring dose reductions,[5]; [10],0
same,"No. patients requiring dose interruptions or reductions, at least possibly related to deforolimus",[5]; dose level 50 mg,5
same,No. patients requiring dose interruptions or reductions,[5]; [11],8
same,No. patients requiring dose reductions,[5]; [11],3
same,"No. patients requiring dose interruptions or reductions, at least possibly related to deforolimus",[5]; dose level 75 mg,9
same,No. patients requiring dose interruptions or reductions,[5]; [12],12
same,No. patients requiring dose reductions,[5]; [12],2
same,"No. patients requiring dose interruptions or reductions, at least possibly related to deforolimus",[5]; dose level 100 mg,3 (3)
same,No. patients requiring dose interruptions or reductions,[5]; [13],3 (3)
same,No. patients requiring dose reductions,[5]; [13],2
same,main dose-limiting toxicity (DLT),[5]; i.v. once weekly,mucositis
same,maximum tolerated dose (MTD),"[5]; i.v. over 30 min every 7 days, flat dosing",75 mg
same,"treatment discontinuations thought to be possibly, probably or definitely related to the study drug",[5]; of six patients with treatment discontinued,4 patients
same,factor of increase in odds of more severe mucositis per 10 mg increase in dose,"[5]; proportional odds model, univariate, 95% CI 1.21–2.07",1.58
same,incidence of hypercholesterolemia,[6],28%
same,incidence of hyperglycemia,[6],28%
same,incidence of hypertriglyceridemia,[6],41%
same,effect on proliferation of human tumor cell lines,human tumor cell lines,inhibits proliferation
same,median inhibition of 4E-BP1 phosphorylation,[7],> 70%
same,estimated slope of nadir platelet count versus dose,Laboratory variables,−12.3 × 10^3/μL per 10 mg increase i
